# From ChEMBL document CHEMBL1201862, “PubChem BioAssay data set” (2004)
# Calls of active or inactive are those of the source.
# Key:
# X-box-binding protein 1 = X-box-binding protein 1 (Homo sapiens, UniProt P17861); type: functional, Cricetulus griseus;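 note: confirmatory dose-response counter-screen serving a CHOP assay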
# [1] = molecular target: T1, Neuropeptide Y receptor type 2 (Homo sapiens, UniProt P49146); test: Fluorescence-based cell-based high-throughput dose response assay for agonists of NPY-Y2. [Related pubchem assays: 1703 (Screening assay (CNGC inhibitors).), 1359 (Screening assay (NPY-Y2 potentiators or agonists).), 1304 (Screening assay (NPY-Y1 potentiators or agonists).), 1710 (Screening assay (NPY-Y2 agonists).), 1791 (Summary AID.)]; type: functional
# T1 sequence (P49146 whole entry): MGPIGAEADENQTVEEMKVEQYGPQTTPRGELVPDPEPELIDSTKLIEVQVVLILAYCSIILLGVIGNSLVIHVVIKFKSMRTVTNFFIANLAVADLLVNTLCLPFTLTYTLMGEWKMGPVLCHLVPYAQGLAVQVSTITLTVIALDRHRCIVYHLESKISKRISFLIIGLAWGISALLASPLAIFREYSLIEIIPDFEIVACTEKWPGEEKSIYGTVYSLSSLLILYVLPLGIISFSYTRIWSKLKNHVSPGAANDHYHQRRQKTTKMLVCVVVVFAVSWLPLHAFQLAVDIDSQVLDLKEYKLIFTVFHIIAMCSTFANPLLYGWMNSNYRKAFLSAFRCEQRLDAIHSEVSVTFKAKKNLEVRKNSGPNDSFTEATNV
# fMet-Leu-Phe receptor = fMet-Leu-Phe receptor (Homo sapiens, UniProt P21462); test: FPR ligands, dose response (AID 519); type: functional
# [2] = molecular target: T2, Neuropeptide Y receptor type 1 (Homo sapiens, UniProt P25929); test: Fluorescence-based counterscreen for agonists of NPY-Y2: cell-based high-throughput dose response assay for agonists of NPY-Y1.; type: functional
# T2 sequence (P25929 whole entry): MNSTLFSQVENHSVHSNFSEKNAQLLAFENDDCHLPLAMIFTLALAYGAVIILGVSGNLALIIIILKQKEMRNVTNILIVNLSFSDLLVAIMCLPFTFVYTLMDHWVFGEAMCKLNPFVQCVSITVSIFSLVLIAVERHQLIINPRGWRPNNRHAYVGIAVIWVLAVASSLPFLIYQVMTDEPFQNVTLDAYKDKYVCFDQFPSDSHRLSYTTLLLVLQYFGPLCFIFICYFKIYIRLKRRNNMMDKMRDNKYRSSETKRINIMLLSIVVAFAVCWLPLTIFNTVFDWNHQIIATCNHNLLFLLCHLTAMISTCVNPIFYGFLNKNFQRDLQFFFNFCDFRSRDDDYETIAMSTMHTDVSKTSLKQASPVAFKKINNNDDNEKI
# HEK293 [3] = test: Fluorescence-based counterscreen for potentiators or agonists of NPY-Y2: cell-based high-throughput dose response assay to identify inhibitors of cyclic nucleotide gated ion channel (CNGC) activity. In this assay, the parental HEK293 cell line transfected with a cyclic-nucleotide gated ion channel (CNGC)-based cAMP sensor is used to measure inhibition of isoproterenol-induced CNGC activity by test compound.; type: functional; conditions: Homo sapiens
# Vero = Vero cell cytotoxicity, cytotoxicity control for flavivirus capping enzyme inhibitors (AID 588742); type: functional; conditions: Chlorocebus sabaeus
# [4] = ARNT/TACC3 interaction disruptors, potency, confirmation, biochemical, AlphaScreen, cherry-picked samples (AID 651703); type: functional, Homo sapiens;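 note: His-tagged ARNT PAS-B domain paired with GST-TACC3 E629A dimer coactivator fragment; potency of inhibitors that break up the complex and lower AlphaScreen signal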
# Genome polyprotein = Genome polyprotein (dengue virus type 2, UniProt P29990); test: Dengue-2 NS5 methyltransferase inhibitors, primary screen, biochemical, confirmation dose response (AID 588689); type: functional
# [5] = molecular target: T3, Long-chain-fatty-acid--AMP ligase FadD28 (Mycobacterium tuberculosis, UniProt P9WQ59); test: Fluorescence polarization aasay to screen for inhibitors that compete for the binding of FadD28 to a bisubstrate Measured in Biochemical System Using Plate Reader - 2147-01_Inhibitor_Dose_CherryPick_Activity.; type: functional, Mycobacterium tuberculosis H37Rv
# T3 sequence (P9WQ59 whole entry): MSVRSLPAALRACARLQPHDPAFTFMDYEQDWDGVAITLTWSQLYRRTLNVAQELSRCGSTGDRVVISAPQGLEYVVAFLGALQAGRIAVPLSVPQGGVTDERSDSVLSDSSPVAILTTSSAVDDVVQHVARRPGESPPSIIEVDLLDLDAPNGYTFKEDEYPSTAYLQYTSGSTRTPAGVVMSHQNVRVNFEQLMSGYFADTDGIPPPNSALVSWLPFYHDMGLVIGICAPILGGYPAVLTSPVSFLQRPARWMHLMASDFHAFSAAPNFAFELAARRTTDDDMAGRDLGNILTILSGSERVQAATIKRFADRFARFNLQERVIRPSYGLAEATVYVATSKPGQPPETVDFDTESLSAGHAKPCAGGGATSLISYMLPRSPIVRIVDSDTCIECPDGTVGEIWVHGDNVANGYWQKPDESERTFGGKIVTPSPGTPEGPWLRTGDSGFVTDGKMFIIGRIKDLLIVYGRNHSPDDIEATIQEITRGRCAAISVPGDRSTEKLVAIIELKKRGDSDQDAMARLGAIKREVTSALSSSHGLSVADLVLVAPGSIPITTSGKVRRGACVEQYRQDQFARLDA
# [6] = HIV-1 Env-mediated cell fusion inhibitors, dose response, CCR5-tropic Env (AID 2279); type: functional
# [7] = inhibitors of SNCA 5'UTR-driven translation, confirmation, luminescence, H4 neuroglioblastoma cells, dose confirmation (AID 2454); type: functional, cell-based;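 note: H4 neuroglioblastoma cells carrying an alpha-synuclein 5'UTR luciferase reporter; potency for inhibition of the luciferase signal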
# HEK293 [8] = test: inhibitors of LMP1-driven NF-kB reporter, dose response, cell-based, HEK293, luciferase, cherry-pick (AID 588343); type: functional; conditions: Homo sapiens
# [9] = test system: Streptococcus sp. 'group A'; test: growth inhibition of control SK(-) GAS strain, dose response, counter-screen for streptokinase expression inhibitor project, luminescence, kanamycin, BacTiterGlo, confirmation (AID 1900); type: functional, organism-based
# Streptococcus = test: Group A Streptococcus viability loss, dose response, counter-screen for streptokinase expression inhibitor project, luminescence, BacTiterGlo (AID 1915); type: functional, organism-based;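 note: potency for reduction of bacterial viability or growth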
# [10] = cytotoxicity toward DRD oncogenic fibroblasts, dose response, cell-based, non-viral oncogenic, luminescence (AID 1934); type: functional; conditions: Homo sapiens
# BJ [11] = test: cytotoxicity toward Ras-transformed BJeLR fibroblasts, dose response, cell-based, alamar blue fluorescence, cherrypicked samples (AID 2631); type: functional; conditions: Homo sapiens;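 note: confirmatory dose-response assay in RAS-dependent BJ fibroblasts engineered with TERT, LT and ST, with cytotoxicity read by fluorescence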
# BJ [12] = test: cytotoxicity toward BJ-TERT-LT-ST fibroblasts, dose response, cell-based, RAS-independent, luminescence (AID 1935); type: functional; conditions: Homo sapiens;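 note: BJ fibroblasts immortalized with TERT plus LT and ST oncogenes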
# [13] = inhibitors of firefly luciferase expression or activity, dose response, H4 neuroglioma cells, luminescence (AID 1990); type: functional, cell-based
# [14] = inhibitors of SNCA 5'UTR-driven reporter translation, confirmation, H4 neuroglioma cells, luminescence (AID 1988); type: functional, cell-based
# BJ [15] = test: cells; type: functional, cell-based; conditions: Homo sapiens
# cells = type: functional, cell-based
# [16] = luciferase reporter signal reduction – luminescence, H4-C neuroglioblastoma cells, dose response (AID 2458); type: functional, cell-based;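 note: H4 neuroglioblastoma cells stably carrying a luciferase reporter gene fusion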
# BJ [17] = test: cytotoxicity toward BJ-TERT fibroblasts, dose response, cell-based, RAS-independent, luminescence (AID 1933); type: functional; conditions: Homo sapiens
# [18] = molecular target: T4, Tyrosine-protein phosphatase non-receptor type 7 (Homo sapiens, UniProt P35236); test: inhibitors of human HePTP phosphatase, […], biochemical, absorbance, leukemia target (AID 521); type: functional
# T4 sequence (P35236 whole entry): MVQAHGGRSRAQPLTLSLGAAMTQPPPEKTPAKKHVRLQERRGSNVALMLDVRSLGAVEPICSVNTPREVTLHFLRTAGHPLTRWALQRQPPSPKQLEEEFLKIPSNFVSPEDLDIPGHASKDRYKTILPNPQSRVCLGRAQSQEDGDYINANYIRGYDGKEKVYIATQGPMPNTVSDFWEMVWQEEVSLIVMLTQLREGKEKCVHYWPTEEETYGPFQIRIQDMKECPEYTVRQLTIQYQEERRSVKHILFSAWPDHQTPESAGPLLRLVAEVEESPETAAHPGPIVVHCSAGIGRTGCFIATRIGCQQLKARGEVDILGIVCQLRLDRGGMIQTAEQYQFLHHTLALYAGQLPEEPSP
# Sequence of fMet-Leu-Phe receptor (P21462 whole entry): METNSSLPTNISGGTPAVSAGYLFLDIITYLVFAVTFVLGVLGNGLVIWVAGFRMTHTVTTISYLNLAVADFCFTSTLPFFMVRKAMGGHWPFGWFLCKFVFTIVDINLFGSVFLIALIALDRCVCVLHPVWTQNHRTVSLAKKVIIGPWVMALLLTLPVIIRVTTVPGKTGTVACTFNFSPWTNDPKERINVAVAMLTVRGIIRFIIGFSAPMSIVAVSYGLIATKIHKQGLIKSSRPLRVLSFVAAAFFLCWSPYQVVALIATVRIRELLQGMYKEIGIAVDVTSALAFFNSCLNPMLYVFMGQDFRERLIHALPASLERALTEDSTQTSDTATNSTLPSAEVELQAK
# Sequence of X-box-binding protein 1 (P17861 whole entry): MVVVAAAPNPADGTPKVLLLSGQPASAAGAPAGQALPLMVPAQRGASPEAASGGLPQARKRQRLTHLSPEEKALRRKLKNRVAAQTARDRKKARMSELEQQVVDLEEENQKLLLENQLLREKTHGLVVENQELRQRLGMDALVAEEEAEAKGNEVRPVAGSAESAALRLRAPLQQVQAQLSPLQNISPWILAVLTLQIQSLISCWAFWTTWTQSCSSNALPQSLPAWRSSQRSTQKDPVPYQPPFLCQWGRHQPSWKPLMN
# Sequence of Genome polyprotein (P29990 2492-3391 limits assumed): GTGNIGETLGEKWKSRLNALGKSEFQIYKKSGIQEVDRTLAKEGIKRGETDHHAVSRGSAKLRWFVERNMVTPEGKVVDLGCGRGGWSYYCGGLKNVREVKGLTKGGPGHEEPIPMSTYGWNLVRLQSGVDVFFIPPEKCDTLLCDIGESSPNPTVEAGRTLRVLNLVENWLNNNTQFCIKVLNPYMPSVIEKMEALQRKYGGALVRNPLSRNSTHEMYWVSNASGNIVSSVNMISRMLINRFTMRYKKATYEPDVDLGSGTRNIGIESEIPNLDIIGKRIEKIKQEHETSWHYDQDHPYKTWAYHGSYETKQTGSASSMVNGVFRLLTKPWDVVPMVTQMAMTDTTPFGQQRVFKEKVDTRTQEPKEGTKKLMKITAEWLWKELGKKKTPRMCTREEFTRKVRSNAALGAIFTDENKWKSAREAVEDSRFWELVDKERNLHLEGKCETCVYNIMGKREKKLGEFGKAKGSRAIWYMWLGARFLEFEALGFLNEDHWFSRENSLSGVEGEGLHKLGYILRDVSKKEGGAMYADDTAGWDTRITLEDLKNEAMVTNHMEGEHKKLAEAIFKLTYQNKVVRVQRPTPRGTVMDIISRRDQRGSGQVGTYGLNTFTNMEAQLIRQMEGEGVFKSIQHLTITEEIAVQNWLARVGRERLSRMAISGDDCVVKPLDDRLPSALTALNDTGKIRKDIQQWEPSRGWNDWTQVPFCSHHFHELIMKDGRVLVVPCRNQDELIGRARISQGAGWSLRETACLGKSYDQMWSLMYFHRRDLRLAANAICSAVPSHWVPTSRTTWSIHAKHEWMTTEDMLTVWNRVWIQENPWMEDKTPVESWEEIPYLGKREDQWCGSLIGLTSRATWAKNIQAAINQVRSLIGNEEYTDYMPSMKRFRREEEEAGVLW
smiles,measurement,setting,value
CCCc1nc2oc(C(=O)c3ccccc3)c(N)c2c2c1COC(C)(C)C2,Absolute IC50 (XBP1),X-box-binding protein 1,10 µM
O=C(O)C1CC=CCC1C(=O)N1CCN(c2nc(-c3ccccc3)c3ccccc3n2)CC1 (stereo not drawn),EC50,[1],> 35.4 µM (not active)
same,Ki,fMet-Leu-Phe receptor,> 66.7 µM (inactive)
same,EC50,[2],22 µM (not active)
same,EC50,HEK293 [3],> 3.94 µM (active)
CC(C(=O)Nc1ccc(O)c(C(=O)O)c1)N1C(=O)/C(=C/c2cccs2)SC1=S (stereo not drawn),CC50,Vero,> 40 µM (active)
same,AC50,[4],132 µM (active)
same,IC50,Genome polyprotein,41.1 µM (active)
same,AC50,[5],> 100 µM (inactive)
same,IC50,[6],> 50 µM (active)
O=[N+]([O-])c1cccc2c(N3CCOCC3)ccnc12,EC50,[1],> 35.4 µM (not active)
same,EC50,[2],> 35.4 µM (not active)
same,EC50,HEK293 [3],> 35.4 µM (not active)
CN(Cc1cnc2nc(N)nc(N)c2n1)c1ccc(C(=O)N[C@@H](CCC(=O)O)C(=O)O)cc1,EC50,[7],0.011 µM (active)
same,AC50,HEK293 [8],0.332 µM (active)
same,EC50,[9],0.621 µM (active)
same,EC50,Streptococcus,0.65 µM (active)
same,EC50,[10],0.244 µM (active)
same,EC50,BJ [11],> 133 µM (inactive)
same,EC50,BJ [12],> 150 µM (not active)
same,EC50,[13],< 0.1 µM (active)
same,EC50,[14],< 0.1 µM (active)
same,EC50,BJ [15],< 0.46 µM (active)
same,EC50,cells,0.078 µM (active)
same,EC50,[16],0.074 µM (active)
same,EC50,BJ [17],> 150 µM (not active)
O=C(NCCCN1CCCC1=O)c1ccc(Cl)c(NS(=O)(=O)c2ccc(F)cc2)c1,IC50,[18],> 100 µM (not active)
C=CCSc1nsc(N)n1,IC50,[18],> 100 µM (not active)
